Assay results from patent publication US8952024B2, “Herbicidal pyrimidone derivatives” (E I du Pont de Nemours and Company, priority 2009, dated 2015).

What was measured:
Assay in all cases: Test B pre-/postemergence plant response
Type in all cases: in vivo
[1] = system: woolly cupgrass (Eriochloa villosa)
Summary of the method: (§1)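 Each species received compound formulated in non-phytotoxic solvent with surfactant, either at planting into a loam and sand blend or as a foliar spray once plants reached 2 to 18 cm in peat-based medium. Plants stayed in the greenhouse 13 to 15 days before visual evaluation against controls, scored 0 (no effect) to 100 (complete control).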

[2] = system: galium (catchweed bedstraw, Galium aparine); details: Preemergence
Summary of the method: as §1

[3] = system: large crabgrass (Digitaria sanguinalis)
Summary of the method: as §1

[4] = system: pigweed (Amaranthus retroflexus)
Summary of the method: as §1

[5] = system: Italian ryegrass (Lolium multiflorum)
Summary of the method: as §1

[6] = system: Surinam grass (Brachiaria decumbens)
Summary of the method: as §1

[7] = system: lambsquarters (Chenopodium album)
Summary of the method: as §1

[8] = system: goosegrass (Eleusine indica)
Summary of the method: as §1

[9] = system: sunflower (common oilseed sunflower, Helianthus annuus); details: Preemergence
Summary of the method: as §1

[10] = system: nightshade (eastern black nightshade, Solanum ptycanthum); details: Preemergence
Summary of the method: as §1

corn (Zea mays) = system: corn (Zea mays)
Summary of the method: as §1

[11] = Postemergence, 31 g ai/ha, 0 to 100 scale (0 no effect, 100 complete control)
[12] = Postemergence, 125 g ai/ha, scale 0 to 100 (0 no effect, 100 complete control)
[13] = Postemergence, 250 g ai/ha, scale 0 to 100 (0 no effect, 100 complete control), 13 to 15 days
[14] = Postemergence, 62 g ai/ha, scale 0 to 100 (0 no effect, 100 complete control)
[15] = Preemergence, 31 g ai/ha, scale 0 to 100 (0 no effect, 100 complete control)
[16] = Preemergence, 62 g ai/ha, scale 0 to 100, 0 no effect, 100 complete control
[17] = Preemergence, 125 g ai/ha, scale 0 to 100, 0 no effect, 100 complete control
[18] = Preemergence, 250 g ai/ha, 0 to 100 scale
[19] = 31 g ai/ha, scale 0 to 100 (0 no effect, 100 complete control)
[20] = 62 g ai/ha, scale 0 to 100, 0 no effect, 100 complete control
[21] = 125 g ai/ha, scale 0 to 100, 0 no effect, 100 complete control
[22] = 31 g ai/ha, postemergence, scale 0 to 100, 0 is no effect, 100 is complete control
[23] = 250 g ai/ha, Preemergence, 0 to 100 scale
[24] = Postemergence, 62 g ai/ha, scale 0 (no effect) to 100 (complete control), 13 to 15 days
[25] = Postemergence, 125 g ai/ha, visual rating after 13 to 15 days, scale 0 (no effect) to 100 (complete control)
[26] = Postemergence, 250 g ai/ha, scale 0 to 100 (0 no effect, 100 complete control)

## CCc1cccc(-n2c(-c3ccccc3)ncc(C(=O)C3=C(O)CCCC3=O)c2=O)c1 [Compound 220]
[1]; [11]
  Plant response rating, Cupgrass, Woolly: 60
[1]; [12]
  Plant response rating, Cupgrass, Woolly: 65
[1]; [13]
  Plant response rating, Cupgrass, Woolly: 65
[1]; [14]
  Plant response rating, Cupgrass, Woolly: 60
[1]; [15]
  Plant response rating, Cupgrass, Woolly: 0
[1]; [16]
  Plant response rating, Cupgrass, Woolly: 0
[1]; [17]
  Plant response rating, Cupgrass, Woolly: 10
[1]; [18]
  Cupgrass, Woolly plant response rating: 25
[2]; [19]
  Plant response rating, Galium: 0
[2]; [20]
  Plant response rating, Galium: 50
[2]; [21]
  Plant response rating, Galium: 90
[2]; 250 g ai/ha, 0 to 100 scale
  Galium plant response rating: 100
[3]; [11]
  Plant response rating, Crabgrass, Large: 70
[3]; [12]
  Plant response rating, Crabgrass, Large: 85
[3]; [13]
  Plant response rating, Crabgrass, Large: 90
[3]; [14]
  Plant response rating, Crabgrass, Large: 75
[3]; [15]
  Plant response rating, Crabgrass, Large: 0
[3]; [16]
  Plant response rating, Crabgrass, Large: 75
[3]; [17]
  Plant response rating, Crabgrass, Large: 80
[3]; [18]
  Crabgrass, Large plant response rating: 100
[4]; [11]
  Plant response rating, Pigweed: 95
[4]; [13]
  Plant response rating, Pigweed: 100
[4]; [14]
  Plant response rating, Pigweed: 100
[4]; [15]
  Plant response rating, Pigweed: 100
[4]; [16]
  Plant response rating, Pigweed: 100
[4]; [17]
  Plant response rating, Pigweed: 100
[4]; [18]
  Pigweed plant response rating: 100
[5]; [11]
  Plant response rating, Ryegrass, Italian: 5
[5]; [13]
  Plant response rating, Ryegrass, Italian: 60
[5]; [14]
  Plant response rating, Ryegrass, Italian: 5
[5]; [15]
  Plant response rating, Ryegrass, Italian: 0
[5]; [16]
  Plant response rating, Ryegrass, Italian: 0
[5]; [17]
  Plant response rating, Ryegrass, Italian: 0
[5]; [18]
  Ryegrass, Italian plant response rating: 0
[6]; [11]
  Plant response rating, Surinam Grass: 50
[6]; [13]
  Plant response rating, Surinam Grass: 75
[6]; [14]
  Plant response rating, Surinam Grass: 60
[6]; [15]
  Plant response rating, Surinam Grass: 10
[6]; [16]
  Plant response rating, Surinam Grass: 20
[6]; [17]
  Plant response rating, Surinam Grass: 45
[6]; [18]
  Surinam Grass plant response rating: 65
[7]; [11]
  Plant response rating, Lambsquarters: 100
[7]; [12]
  Plant response rating, Lambsquarters: 100
[7]; [13]
  Plant response rating, Lambsquarters: 100
[7]; [14]
  Plant response rating, Lambsquarters: 100
[7]; [15]
  Plant response rating, Lambsquarters: 100
[7]; [16]
  Plant response rating, Lambsquarters: 100
[7]; [17]
  Plant response rating, Lambsquarters: 100
[7]; [18]
  Lambsquarters plant response rating: 100
[8]; [11]
  Plant response rating, Goosegrass: 80
[8]; [12]
  Plant response rating, Goosegrass: 85
[8]; [13]
  Plant response rating, Goosegrass: 90
[8]; [14]
  Plant response rating, Goosegrass: 85
[8]; [15]
  Plant response rating, Goosegrass: 65
[8]; [16]
  Plant response rating, Goosegrass: 95
[8]; [17]
  Plant response rating, Goosegrass: 98
[8]; [18]
  Goosegrass plant response rating: 100
[9]; [19]
  Plant response rating, Sunflower: 0
[9]; [20]
  Plant response rating, Sunflower: 45
[9]; [21]
  Plant response rating, Sunflower: 70
[9]; 250 g ai/ha, 0 to 100 scale
  Sunflower plant response rating: 90
[10]; [19]
  Plant response rating, Nightshade: 65
[10]; [20]
  Plant response rating, Nightshade: 90
[10]; [21]
  Plant response rating, Nightshade: 98
[10]; 250 g ai/ha, 0 to 100 scale
  Nightshade plant response rating: 100
Corn (Zea mays); [11]
  Plant response rating, Corn: 25
Corn (Zea mays); [12]
  Plant response rating, Corn: 55
Corn (Zea mays); [13]
  Plant response rating, Corn: 75
Corn (Zea mays); [14]
  Plant response rating, Corn: 50
Corn (Zea mays); [15]
  Plant response rating, Corn: 0
Corn (Zea mays); [16]
  Plant response rating, Corn: 0
Corn (Zea mays); [17]
  Plant response rating, Corn: 0
Corn (Zea mays); [18]
  Corn plant response rating: 0

## CCCCc1ncc(C(=O)C2=C(O)CCCC2=O)c(=O)n1-c1ccccc1C [Compound 62]
[1]; [22]
  Plant response rating, Cupgrass, Woolly: 55
[1]; [23]
  Plant response rating, Cupgrass, Woolly: 10
[1]; [24]
  Plant response rating, Cupgrass, Woolly: 55
[1]; [25]
  Plant response rating, Cupgrass, Woolly: 60
[1]; [26]
  Plant response rating, Cupgrass, Woolly: 65
[1]; [15]
  Plant response rating, Cupgrass, Woolly: 0
[1]; [16]
  Plant response rating, Cupgrass, Woolly: 0
[1]; [17]
  Plant response rating, Cupgrass, Woolly: 5
[2]; 250 g ai/ha, 0 to 100 scale
  Plant response rating, Galium: 0
[2]; [19]
  Plant response rating, Galium: 0
[2]; [20]
  Plant response rating, Galium: 0
[2]; [21]
  Plant response rating, Galium: 0
[3]; [22]
  Plant response rating, Crabgrass, Large: 55
[3]; [23]
  Plant response rating, Crabgrass, Large: 98
[3]; [24]
  Plant response rating, Crabgrass, Large: 75
[3]; [25]
  Plant response rating, Crabgrass, Large: 80
[3]; [26]
  Plant response rating, Crabgrass, Large: 85
[3]; [15]
  Plant response rating, Crabgrass, Large: 0
[3]; [16]
  Plant response rating, Crabgrass, Large: 50
[3]; [17]
  Plant response rating, Crabgrass, Large: 80
[4]; [22]
  Plant response rating, Pigweed: 98
[4]; [24]
  Plant response rating, Pigweed: 98
[4]; [25]
  Plant response rating, Pigweed: 100
[4]; [26]
  Plant response rating, Pigweed: 100
[4]; [15]
  Plant response rating, Pigweed: 45
[4]; [16]
  Plant response rating, Pigweed: 98
[4]; [17]
  Plant response rating, Pigweed: 100
[5]; [22]
  Plant response rating, Ryegrass, Italian: 0
[5]; [24]
  Plant response rating, Ryegrass, Italian: 5
[5]; [25]
  Plant response rating, Ryegrass, Italian: 50
[5]; [26]
  Plant response rating, Ryegrass, Italian: 50
[5]; [15]
  Plant response rating, Ryegrass, Italian: 0
[5]; [16]
  Plant response rating, Ryegrass, Italian: 0
[5]; [17]
  Plant response rating, Ryegrass, Italian: 0
[6]; [22]
  Plant response rating, Surinam Grass: 20
[6]; [24]
  Plant response rating, Surinam Grass: 45
[6]; [25]
  Plant response rating, Surinam Grass: 65
[6]; [26]
  Plant response rating, Surinam Grass: 70
[6]; [15]
  Plant response rating, Surinam Grass: 5
[6]; [16]
  Plant response rating, Surinam Grass: 20
[6]; [17]
  Plant response rating, Surinam Grass: 25
[7]; [22]
  Plant response rating, Lambsquarters: 85
[7]; [23]
  Plant response rating, Lambsquarters: 100
[7]; [24]
  Plant response rating, Lambsquarters: 95
[7]; [25]
  Plant response rating, Lambsquarters: 98
[7]; [26]
  Plant response rating, Lambsquarters: 100
[7]; [15]
  Plant response rating, Lambsquarters: 98
[7]; [16]
  Plant response rating, Lambsquarters: 98
[7]; [17]
  Plant response rating, Lambsquarters: 100
[8]; [22]
  Plant response rating, Goosegrass: 65
[8]; [23]
  Plant response rating, Goosegrass: 98
[8]; [24]
  Plant response rating, Goosegrass: 65
[8]; [25]
  Plant response rating, Goosegrass: 65
[8]; [26]
  Plant response rating, Goosegrass: 75
[8]; [15]
  Plant response rating, Goosegrass: 15
[8]; [16]
  Plant response rating, Goosegrass: 95
[8]; [17]
  Plant response rating, Goosegrass: 98
[9]; [19]
  Plant response rating, Sunflower: 0
[9]; [20]
  Plant response rating, Sunflower: 10
[9]; [21]
  Plant response rating, Sunflower: 10
[10]; [19]
  Plant response rating, Nightshade: 10
[10]; [20]
  Plant response rating, Nightshade: 95
[10]; [21]
  Plant response rating, Nightshade: 98
Corn (Zea mays); [22]
  Plant response rating, Corn: 70
Corn (Zea mays); [24]
  Plant response rating, Corn: 70
Corn (Zea mays); [25]
  Plant response rating, Corn: 75
Corn (Zea mays); [26]
  Plant response rating, Corn: 80
Corn (Zea mays); [15]
  Plant response rating, Corn: 0
Corn (Zea mays); [17]
  Plant response rating, Corn: 0
